Measurements: patent US8871179B2, “Method for monitoring blood flow and metabolic uptake in tissue with radiolabeled alkanoic acid” (The General Hospital Corporation, priority 2003, dated 2014)

What was measured:
[1] = in vivo; cited from earlier work
[2] = Biodistribution of isomers and racemic mixture of labeled 3-methylheptadecanoic acid in rats; type: in vivo; conditions: rat
Method: The following data compare the biodistribution of 1-[^11C]-3(S)-methylheptadecanoic acid (the ‘S’ isomer) and I-[^11C]-3(R)-methylheptadecanoic acid (the ‘R’ isomer). Also compared is the racemic mixture, 1-[^14C]-3(R,S)-methylheptadecanoic acid, labeled with ^14C. […] Biodistribution was performed in six rats for each compound and time point. The 5-minute distribution data are contained in Table 5, while the 30-minute data are contained in Table 6. These unexpected results imply that during β-oxidation, enoyl-CoA hydratase is stereo-specific and only recognizes the ‘S’ isomer. Further, stereoisomeric purity is important for targeting the MFA to heart tissue.

[3] = cited from earlier work
[4] = Biodistribution of [^18F]-FCPHA in rats (organs excised, gamma counter); type: in vivo, Sprague-Dawley rats
[5] = PET heart imaging in monkey after intravenous [^18F]-FCPHA; type: in vivo
Method: (§1) In FIG. 6, the images are a comparison of [^13N]ammonia (right) and [^18F]FCPHA (left) at 2-8 minutes in a pig.
(§2) The biodistribution of [^18F]-FCPHA was also studied in monkeys.

[6] = Heart imaging in pig after intravenous [^18F]FCPHA; type: in vivo
Method: as §1, §2

[7] = Biodistribution of [^18F]-FCPHA in rats (organs excised, gamma counter); type: in vivo, Sprague-Dawley rats; conditions: rat
Method: Male Sprague-Dawley rats weighing approximately 300-350 grams, were injected without anesthesia with 40 µCi of [^18F]-FCPHA in a total volume of 200 µl. The radiolabeled FA was injected into the tail vein and the rats subsequently sacrificed at 5 minutes and 60 minutes post-injection. The organs were excised and counted in a gamma counter. Accumulation of the FA in various organs in % DPG (dose per gram) is detailed in Table 1.
Bone accumulation of the fluorinated FA measured de-fluorination of the compound and its subsequent accumulation. To confirm imaging resolution, the following ratios were determined at 5 and 60 minutes post-injection (Table 2).

[8] = normal myocardium, biexponential clearance

Compound: CC(CCCCCCCCCCCCc1ccc(I)cc1)CC(=O)O (racemic) [BMIPP, 15-(p-iodophenyl)-3-(R,S)-methyl-pentadecanoic acid]
- Myocardial retention [1]: 30 to 45 min

Compound: CCCCCCCCCCCCCCC(C)C[14C](=O)O (racemic) [R,S racemic mixture, 1-[^14C]-3(R,S)-methylheptadecanoic acid]
- Biodistribution, Blood ([2]; 5 minutes post-injection): 0.23 ± 0.02 % DPE
- Biodistribution, Heart ([2]; 5 minutes post-injection): 2.20 ± 0.95 % DPE
- Biodistribution, Left Ventricle ([2]; 5 minutes post-injection): 2.87 ± 1.01 % DPE
- Biodistribution, Right Ventricle ([2]; 5 minutes post-injection): 2.05 ± 0.54 % DPE
- Heart-to-blood ([2]; 5 minutes post-injection): 9.56
- Left ventricle-to-blood ([2]; 5 minutes post-injection): 12.48
- Right ventricle-to-blood ([2]; 5 minutes post-injection): 8.90
- Biodistribution, Blood ([2]; 30 minutes post-injection): 0.20 ± 0.02 % DPE
- Biodistribution, Heart ([2]; 30 minutes post-injection): 2.10 ± 0.41 % DPE
- Biodistribution, Left Ventricle ([2]; 30 minutes post-injection): 2.81 ± 0.35 % DPE
- Biodistribution, Right Ventricle ([2]; 30 minutes post-injection): 2.10 ± 0.41 % DPE
- Heart-to-blood ([2]; 30 minutes post-injection): 10.10
- Left ventricle-to-blood ([2]; 30 minutes post-injection): 12.48
- Right ventricle-to-blood ([2]; 30 minutes post-injection): 10.05

Compound: CCCCCCCCCCCCCC[C@H](C)C[11C](=O)O (single isomer, unassigned; isomer 1) [S-isomer]
- Biodistribution, Blood ([2]; 5 minutes post-injection): 0.18 ± 0.01 % DPE
- Biodistribution, Heart ([2]; 5 minutes post-injection): 3.44 ± 0.54 % DPE
- Biodistribution, Left Ventricle ([2]; 5 minutes post-injection): 4.05 ± 0.77 % DPE
- Biodistribution, Right Ventricle ([2]; 5 minutes post-injection): 3.40 ± 0.82 % DPE
- Heart-to-blood ([2]; 5 minutes post-injection): 19.00
- Left ventricle-to-blood ([2]; 5 minutes post-injection): 22.00
- Right ventricle-to-blood ([2]; 5 minutes post-injection): 18.88
- Biodistribution, Blood ([2]; 30 minutes post-injection): 0.21 ± 0.04 % DPE
- Biodistribution, Heart ([2]; 30 minutes post-injection): 3.08 ± 0.30 % DPE
- Biodistribution, Left Ventricle ([2]; 30 minutes post-injection): 3.81 ± 0.37 % DPE
- Biodistribution, Right Ventricle ([2]; 30 minutes post-injection): 2.82 ± 0.46 % DPE
- Heart-to-blood ([2]; 30 minutes post-injection): 14.66
- Left ventricle-to-blood ([2]; 30 minutes post-injection): 18.14
- Right ventricle-to-blood ([2]; 30 minutes post-injection): 18.88

Compound: CCCCCCCCCCCCCC[C@@H](C)C[11C](=O)O (single isomer, unassigned; isomer i) [R-isomer]
- Biodistribution, Blood ([2]; 5 minutes post-injection): 0.30 ± 0.04 % DPE
- Biodistribution, Heart ([2]; 5 minutes post-injection): 1.40 ± 0.23 % DPE
- Biodistribution, Left Ventricle ([2]; 5 minutes post-injection): 1.50 ± 0.50 % DPE
- Biodistribution, Right Ventricle ([2]; 5 minutes post-injection): 0.94 ± 0.46 % DPE
- Heart-to-blood ([2]; 5 minutes post-injection): 4.66
- Left ventricle-to-blood ([2]; 5 minutes post-injection): 5.00
- Right ventricle-to-blood ([2]; 5 minutes post-injection): 3.13
- Biodistribution, Blood ([2]; 30 minutes post-injection): 0.23 ± 0.03 % DPE
- Biodistribution, Heart ([2]; 30 minutes post-injection): 1.07 ± 0.16 % DPE
- Biodistribution, Left Ventricle ([2]; 30 minutes post-injection): 1.33 ± 0.25 % DPE
- Biodistribution, Right Ventricle ([2]; 30 minutes post-injection): 0.93 ± 0.35 % DPE
- Heart-to-blood ([2]; 30 minutes post-injection): 5.95
- Left ventricle-to-blood ([2]; 30 minutes post-injection): 5.78
- Right ventricle-to-blood ([2]; 30 minutes post-injection): 4.00

Compound: CC(C)(CCCCCCCCCCCCc1ccc(I)cc1)CC(=O)O [DMIPP]
- Myocardial clearance [1]: 6 to 7 h

Compound: O=C(O)CCCCCCCCCCCCCCc1ccc(I)cc1 [IPPA, 15-(p-iodophenyl)pentadecanoic acid]
- Blood clearance t½ (elimination) ([3]; in vivo): 5 min
- Myocardial clearance, fast component t½ (flow) [3, 8]: 3.5 min
- Myocardial clearance, slow component t½ (metabolism) [3, 8]: 130 min

Compound: CCCCCCCCC([18F])CCCCC1CC1CC(=O)O (stereo not drawn) [[^18F]-FCPHA, [^18F]-9-fluoro-3,4-cyclopropyl-heptadecanoic acid]
- Subcellular distribution in the rat heart [4]: found in the mitochondria
- Blood activity clearance ([5]; monkey): fast clearance
- Heart activity as a function of time ([5]; monkey heart, after injection (FIG. 3)): initial spike of activity corresponding to blood flow followed by a plateau after 10 minutes
- Myocardial trapping visualized by PET ([5]; monkey, sixty minutes after intravenous injection of 5 mCi): myocardial trapping in both left and right ventricles
- Myocardial activity retention in late images ([6]; late images at 60 minutes): high myocardial activity retention
- Blood activity clearance ([6]; pig): fast clearance
- Heart activity as a function of time ([6]; pig heart, after injection): initial spike of activity corresponding to blood flow followed by a plateau after 10 minutes
- Accumulation in Adrenal ([7]; 5 min post-injection): 0.22 ± 0.061 % DPG
- Accumulation in Blood ([7]; 5 min post-injection): 0.064 ± 0.008 % DPG
- Accumulation in Bone ([7]; 5 min post-injection): 0.16 ± 0.03 % DPG
- Accumulation in Brain ([7]; 5 min post-injection): 0.06 ± 0.01 % DPG
- Accumulation in Gastrointestinal Tract ([7]; 5 min post-injection): 0.19 ± 0.040 % DPG
- Accumulation in Kidney ([7]; 5 min post-injection): 0.41 ± 0.097 % DPG
- Accumulation in Liver ([7]; 5 min post-injection): 1.34 ± 0.26 % DPG
- Accumulation in Lung ([7]; 5 min post-injection): 0.47 ± 0.12 % DPG
- Accumulation in Muscle ([7]; 5 min post-injection): 0.25 ± 0.009 % DPG
- Accumulation in Spleen ([7]; 5 min post-injection): 0.55 ± 0.30 % DPG
- Accumulation in Stomach ([7]; 5 min post-injection): 0.12 ± 0.067 % DPG
- Accumulation in Testes ([7]; 5 min post-injection): 0.020 ± 0.003 % DPG
- Accumulation in Heart ([7]; 5 min post-injection, tail vein): 1.55 ± 0.66 % DPG
- Accumulation in Adrenal ([7]; 60 min post-injection): 0.30 ± 0.16 5 DPG
- Accumulation in Blood ([7]; 60 min post-injection): 0.080 ± 0.019 5 DPG
- Accumulation in Bone ([7]; 60 min post-injection): 0.70 ± 0.39 5 DPG
- Accumulation in Brain ([7]; 60 min post-injection): 0.05 ± 0.02 5 DPG
- Accumulation in Gastrointestinal Tract ([7]; 60 min post-injection): 0.24 ± 0.039 5 DPG
- Accumulation in Heart ([7]; 60 min post-injection): 1.43 ± 0.14 5 DPG
- Accumulation in Kidney ([7]; 60 min post-injection): 0.34 ± 0.08 5 DPG
- Accumulation in Liver ([7]; 60 min post-injection): 0.87 ± 0.15 5 DPG
- Accumulation in Lung ([7]; 60 min post-injection): 0.33 ± 0.16 5 DPG
- Accumulation in Muscle ([7]; 60 min post-injection): 0.097 ± 0.075 5 DPG
- Accumulation in Spleen ([7]; 60 min post-injection): 0.34 ± 0.085 5 DPG
- Accumulation in Stomach ([7]; 60 min post-injection): 0.15 ± 0.038 5 DPG
- Accumulation in Testes ([7]; 60 min post-injection): 0.011 ± 0.004 5 DPG
- Heart-to-blood ratio ([7]; at 5 minutes post-injection): 25.8
- Heart-to-lung ratio ([7]; at 5 minutes post-injection): 3.3
- Heart-to-blood ratio ([7]; at 60 minutes post-injection): 20.4
- Heart-to-lung ratio ([7]; at 60 minutes post-injection): 4.6
